# Square brackets hold non-standard residues; d marks the D form. Ends that are not written are not given here. Peptide text beside a SMILES is read from it. Ahx = NCCCCCC(=O)O
# Key:
# [1] = biological target: T1, rat pancreatic islet (wild type) GIP-receptor (Rattus norvegicus, UniProt P43219); assay: biochemical; assay type: binding; settings: for Receptor Binding % Displacement at 10 μM: 10 μM peptide, 125I-GIP; for inhibition at 20 µM: read-out: Receptor Binding % Displacement at 20 μM; for Percent displacement of 125I-GIP from wtGIPR cells: 50 micromolar peptide analogue, FIG. 9
# T1 construct: expressed in transfected cells; host or cells: CHO-K1 (Chinese hamster ovary)
# T1 sequence (P43219 19-455): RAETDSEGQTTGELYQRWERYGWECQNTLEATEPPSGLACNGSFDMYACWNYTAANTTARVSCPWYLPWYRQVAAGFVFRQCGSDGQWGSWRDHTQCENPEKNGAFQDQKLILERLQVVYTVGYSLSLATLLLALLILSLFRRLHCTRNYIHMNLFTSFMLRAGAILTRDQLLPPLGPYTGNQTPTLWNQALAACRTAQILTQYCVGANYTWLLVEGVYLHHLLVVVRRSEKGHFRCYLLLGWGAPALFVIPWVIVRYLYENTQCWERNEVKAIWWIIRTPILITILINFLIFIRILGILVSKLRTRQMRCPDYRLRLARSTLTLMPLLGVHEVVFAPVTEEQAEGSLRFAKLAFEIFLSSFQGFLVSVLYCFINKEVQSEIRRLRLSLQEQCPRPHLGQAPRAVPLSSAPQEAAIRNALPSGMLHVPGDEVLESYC
# Procedure: (§1) Cells were cultured in DMEM/F12, supplemented with 10% newborn calf serum, 50 units/ml penicillin G, and 50 μg/ml streptomycin (Culture media and antibiotics from Gibco BRL, Life Technologies). Cells were grown in 75 cm^2 flasks until 80-90% confluent, when they were split and seeded onto 24 well plates at a density of 50,000 cells/well. Experiments were carried out 48 h later.
# Binding studies using ^125I-labeled spGIP1-42, purified by high performance liquid chromatography (HPLC), were performed essentially as described previously-[21]. wtGIP-R1 Cells (1-5×10^5/well) were washed twice at 4° C. in binding buffer (BB), consisting of DMEM/F12 (GIBCO), 15 mM HEPES, 0.1% bovine serum albumin (BSA), 1% Trasylol (aprotinin; Bayer), pH 7.4. They were incubated for 12-16 h at 4° C. with ^125I-spGIP (50,000 cpm) in the presence or absence of unlabeled GIP1-42 or analogue. Following incubation, cells were washed twice with ice cold buffer, solubilized with 0.1 M NaOH (1 ml), and transferred to culture tubes for counting of cell-associated radioactivity. Nonspecific binding was defined as that measured in the presence of 1 μM GIP1-42 or GIP1-30, and specific binding expressed as % of binding in the absence of competitor (% B/Bo).
# [2] = biological target: T1, rat pancreatic islet (wild type) GIP-receptor; assay: cAMP production in CHO-K1 cells expressing the GIP-receptor (wtGIP-R1 cells); assay type: cell-based; settings: for cAMP Production (Fold Basal) 10 μM: 10 μM peptide; for cAMP Production (Fold Basal) 10 μM / cAMP Production (Fold Basal) 20 μM: basal cyclic AMP = 2.737 ± 0.079 fmol/1000 cells; for cAMP Production (Fold Basal) 20 μM: 20 μM peptide
# Procedure: as §1
# Cells were extracted with 70% ethanol and cAMP levels measured by radioimmunoassay (Biomedical Technologies, Stoughton, Mass.). Data are expressed as fmol/1000 cells or % maximal GIP1-42-stimulated cAMP production (inhibition experiments).
molecule,measurement,setting,value
1-7NH2: GIP fragment 1-7 amide (YAEGTFI-NH2),Receptor Binding % Displacement at 10 μM,[1],−6.1 ± 3.4%
CC[C@H](C)[C@H](NC(=O)[C@H](CCCCN)NC(=O)[C@@H](N)CC(=O)O)C(=O)N[C@@H](Cc1c[nH]cn1)C(=O)N[C@@H](CCC(N)=O)C(=O)N[C@@H](CCC(N)=O)C(=O)N[C@@H](CC(=O)O)C(=O)N[C@@H](Cc1ccccc1)C(=O)N[C@H](C(=O)N[C@@H](CC(N)=O)C(=O)N[C@@H](Cc1c[nH]c2ccccc12)C(=O)N[C@@H](CC(C)C)C(=O)N[C@@H](CC(C)C)C(=O)N[C@@H](C)C(=O)N[C@@H](CCC(N)=O)C(=O)N[C@@H](CCCCN)C(=O)NCC(=O)N[C@@H](CCCCN)C(=O)N[C@@H](CCCCN)C(=O)N[C@@H](CC(N)=O)C(=O)N[C@@H](CC(=O)O)C(=O)N[C@@H](Cc1c[nH]c2ccccc12)C(=O)N[C@@H](CCCCN)C(=O)N[C@@H](Cc1c[nH]cn1)C(=O)N[C@@H](CC(N)=O)C(=O)N[C@H](C(=O)N[C@H](C(=O)N[C@@H](CCC(N)=O)C(=O)O)[C@@H](C)O)[C@@H](C)CC)C(C)C [15-42OH],cAMP Production (Fold Basal) 10 μM,[2],1.02 ± 0.10 Fold Basal
same,cAMP Production (Fold Basal) 20 μM,[2],1.01 ± 0.03 Fold Basal
CC(C)C[C@H](NC(=O)[C@H](CC(C)C)NC(=O)[C@H](Cc1c[nH]c2ccccc12)NC(=O)[C@H](CC(N)=O)NC(=O)[C@@H](NC(=O)[C@H](Cc1ccccc1)NC(=O)[C@H](CC(=O)O)NC(=O)[C@H](CCC(N)=O)NC(=O)[C@H](CCC(N)=O)NC(=O)CCCCCNC(=O)[C@H](Cc1ccccc1)NC(=O)[C@@H](NC(=O)CNC(=O)[C@H](CCC(=O)O)NC(=O)[C@H](C)NC(=O)[C@@H](N)Cc1ccc(O)cc1)[C@@H](C)O)C(C)C)C(=O)N[C@@H](C)C(=O)N[C@@H](CCC(N)=O)C(=O)N[C@@H](CCCCN)C(N)=O [GIP(1-6)(Ahx)1(19-30)NH2] (H-YAEGTF[Ahx]QQDFVNWLLAQK-NH2; N-terminus assumed),cAMP Production Max. cAMP (Fold Basal),"[2]; Table 3, cyclic AMP stimulated by 20 μM peptide if plateau levels were not achieved",95.9 ± 8.6 Fold Basal
same,inhibition at 20 µM,[1],62 ± 4.3%
"CC[C@H](C)[C@H](NC(=O)[C@H](CO)NC(=O)[C@H](Cc1ccc(O)cc1)NC(=O)[C@H](CC(=O)O)NC(=O)[C@H](CO)NC(=O)[C@@H](NC(=O)[C@H](Cc1ccccc1)NC(=O)[C@@H](NC(=O)CNC(=O)[C@H](CCC(=O)O)NC(=O)[C@H](C)NC(=O)[C@@H](N)Cc1ccc(O)cc1)[C@@H](C)O)[C@@H](C)CC)C(=O)N[C@@H](C)C(=O)N[C@@H](CCSC)C(=O)N[C@@H](CC(=O)O)C(=O)N[C@@H](CCCCN)C(=O)N[C@H](C(=O)N[C@@H](Cc1c[nH]cn1)C(=O)N[C@@H](CCC(N)=O)C(=O)N[C@@H](CCC(N)=O)C(=O)N[C@@H](CC(=O)O)C(=O)N[C@@H](Cc1ccccc1)C(=O)N[C@H](C(=O)N[C@@H](CC(N)=O)C(=O)N[C@@H](Cc1c[nH]c2ccccc12)C(=O)N[C@@H](CC(C)C)C(=O)N[C@@H](CC(C)C)C(=O)N[C@@H](C)C(=O)N[C@@H](CCC(N)=O)C(=O)N[C@@H](CCCCN)C(=O)NCC(=O)N[C@@H](CCCCN)C(=O)N[C@@H](CCCCN)C(=O)N[C@@H](CC(N)=O)C(=O)N[C@@H](CC(=O)O)C(=O)N[C@@H](Cc1c[nH]c2ccccc12)C(=O)N[C@@H](CCCCN)C(=O)N[C@@H](Cc1c[nH]cn1)C(=O)N[C@@H](CC(N)=O)C(=O)N[C@H](C(=O)N[C@H](C(=O)N[C@@H](CCC(N)=O)C(=O)O)[C@@H](C)O)[C@@H](C)CC)C(C)C)[C@@H](C)CC [GIP(1-42)OH, reference compound]",Receptor Binding % Displacement at 10 μM,[1],100%
same,inhibition at 20 µM,[1],100%
KIRQQDFVNWLLAQK-NH2 [16-30NH2],cAMP Production (Fold Basal) 10 μM,[2],1.04 ± 0.06 Fold Basal
same,cAMP Production (Fold Basal) 20 μM,[2],0.80 ± 0.02 Fold Basal
YAAGTFISDYSIAM-OH [A3],Percent displacement of 125I-GIP from wtGIPR cells,[1],unable to displace measurable
YAEGAFISDYSIAM-OH [A5],Percent displacement of 125I-GIP from wtGIPR cells,[1],unable to displace measurable

# Source: patent US20050137135A1 (priority 2002, published 2005)
